These results are taken from patent publication US12384774B2, “Polymorph of CDK9 inhibitor and preparation method for polymorph and use thereof” (GenFleet Therapeutics (Shanghai) Inc., priority 2019, dated 2025).

Converted amounts (≈) assume the structure as drawn. Structures can show the parent of a compound that is named as a salt. Where two headings read alike, the source gives them in different places.

A short description of series [1]: Solubility test in PBS buffers of different pH, water and normal saline at room temperature. The following applies: for solubility: thermodynamic from solid. It is filed as physicochemical. The method, then:
Weigh about 50 mg of the crystal form 1 of the maleate of the compound of formula (I) prepared in Example 2, which was added into different bottles. Then PBS buffers with different pH values were prepared. Each of them was added in batches with a small amount into each of the above bottles at room temperature till the crystal form in each bottle was just dissolved. The total amount of the solvent was recorded and the solubility was calculated.
The amorphous form of the free base of the compound of formula (I) was subjected to the same solubility study as above-mentioned.

The test system of series [2] is Acute myeloid leukemia cells MV-4-11. Kind of series: Cell proliferation inhibition, CellTiter-Glo. It is filed as cell-based. Particulars: MV-4-11 cells. The method, then: Weigh 5.61 mg of the crystal form 1 of the maleate of the compound of formula (I) prepared in Example 2, which was dissolved it in 74.7 μL of DMSO.
Configure 1000× compound storage plate (or called 1000× storage medicine plate): the 100 mM compound storage solution was diluted with DMSO. The starting concentration was 10 mM and 9 concentration gradients (th concentration of the storage solution was 10 mM, 3 mM, 1 mM, 0.3 mM, 0.1 mM, 0.03 mM, 0.01 mM, 0.001 mM and 0.0001 mM respectively) were set. The compound storage plate was sealed with a sealing tape, and stored in a refrigerator at −20° C. for later use.
Acute myeloid leukemia cells MV-4-11 (purchased from ATCC) were selected and seaded into a 96-well plate (140 μL per well) at a density of 5000/well and cultured overnight in a incubator with 37° C., 5% CO2.
1000×storage medicine plates were taken out and melt at room temperature while avoiding light. Then prepare 15× intermediate medicine plates (78.8 μL of medium and 1.2 μL of medicine-containing DMSO storage solution), which were mixed well. 10 μL of the medicine-contained medium (15×) was added into the 96-well cell plates (the final concentration was 10 μM, 3 μM, 1 μM, 0.3 μM, 0.1 μM, 0.03 μM, 0.01 μM, 0.001 μM and 0.0001 μM, respectively, and the final concentration of DMSO was […]), which were gently patted to well-mixed, then put it in a incubator with 37° C., 5% CO2, and continued to incubate for 24 hours.
Then the CellTiter-Glo method was used to detect vitality of the cell under the conditions of each drug concentration, and the rate of cell proliferation inhibition under the corresponding conditions was calculated.
(In general: In ATP-based viability assays light output follows the ATP content of the culture.)

Series [3] can be described thus: Hygroscopicity observation on the hydrochloride (Comparative Example 2). It is filed as physicochemical. The following applies: solid in crystal form obtained with hydrochloric acid. The procedure:
Similarly, by using the method described in Example 1 or Example 9, the according salt of the compound of formula (I) were prepared with the hydrochloric acid instead of the maleic acid or the fumaric acid.

The nature of series [4]: Stability test in a 60° C. drying oven (impurity, content, XRPD). It is filed as physicochemical. The following applies: for Content % / Total impurity %: 60° C. drying oven. The method, then: The crystal form A of the fumarate of the compound of formula (I) prepared in Example 9 and the crystal form 1 of the maleate of the compound of formula (I) prepared in Example 2 were placed in a 60° C. drying oven for different days (0 days, 7 days, 21 days). Samples were collected and detected to investigate the stability of the crystal forms.
The amorphous form of the free base of the compound of formula (I) was subjected to the same stability study as above-mentioned.
The crystal form 2 of the maleate of the compound of formula (I) prepared in Example 3 was placed in a 60° C. drying oven, and samples were taken and tested for different days (0 days, 7 days, 14 days and 30 days) to investigate the stability of the crystal form.

Series [5] in a line: Hygroscopicity test by dynamic moisture adsorption instrument (DVS). It is filed as physicochemical. The following applies: for weight increasement due to moisture absorption: 25° C. The procedure:
Experimental method: this test was carried out by a dynamic moisture adsorption instrument. Weigh 10 mg of a solid sample, which was placed on a balance. The humidity in the sample room was controlled through the program. The sample was placed under the same temperature and different humidity conditions for 7 days, then the quality change of the tested sample was measured with relative humidity. Detection procedure: the humidity change was 0%-95%-0%; the test temperature was 25° C.
The amorphous form of the free base of the compound of formula (I) was subjected to the same hygroscopicity study as above-mentioned. […] When the relative humidity is 95%, the weight increasement due to moisture absorption can reach 9.5%, and the sample after moisture absorption is not easy to desorb.

Series [6] can be described thus: Stability test in a 60° C. drying oven (impurity, content, XRPD). It is filed as physicochemical. The following applies: for Content % / Total impurity %: 60° C. drying oven, 21 days; for change in content or in the characteristic peaks of the XRPD pattern: after 21 days at high temperature (60° C.).
Where [7] appears, read: amorphous form, 60° C., 7th and 14th day.

As for `COC[C@@H](C)N[C@H]1CC[C@H](Nc2cc(-c3csc(NCC4(C#N)CCOCC4)n3)c(Cl)cn2)CC1` [listing 1 of 2 here], the solubility in series [1] (PBS buffer, pH 6, aqueous buffer, PBS 6.0, room temperature, read-out: Solubility (S, mg/mL)) was 41 mg/mL (≈ 79 mM); in series [1] (PBS buffers of different pH, water and normal saline, aqueous buffer, PBS 6.0-7.5, water, normal saline, read-out: solubility in each of the above-mentioned solvents (summary)), 30 to 60 mg/mL (≈ 57.8 to 116 mM); in series [1] (normal saline, saline or isotonic, normal saline, room temperature, read-out: Solubility (S, mg/mL)), 50 mg/mL (≈ 96.3 mM). Also, in series [2] (Homo sapiens, MV4-11, 24 hours incubation, CellTiter-Glo, read-out: absolute half inhibitory concentration (ABsIC50)), the IC50 is 0.032 µM.

As to `COC[C@@H](C)N[C@H]1CC[C@H](Nc2cc(-c3csc(NCC4(C#N)CCOCC4)n3)c(Cl)cn2)CC1` [listing 2 of 2 here], the “hygroscopicity (in words)” value in series [3] was “very hygroscopic”.

In series [4] (0 day), `COC[C@@H](C)N[C@H]1CC[C@H](Nc2cc(-c3csc(NCC4(C#N)CCOCC4)n3)c(Cl)cn2)CC1` [crystal form A of the fumarate of the compound of formula (I] returned a Content % of 99.38% and a Total impurity % of 0.62%. In series [4] (7 days), the Content % is 99.31% and the Total impurity % was 0.69%. Further, in series [5] (environment humidity RH=60%), the “hygroscopicity (in words)” value is listed as “weak” and the “weight increasement due to moisture absorption” value (“weight increasement due” below) is “about 1%”. In addition, in series [6], the Content % amounted to 99.22%, the Total impurity % stood at 0.78% and the “change in content or in the characteristic peaks of the XRPD pattern” value is “basically no change”.

Take `COC[C@@H](C)N[C@H]1CC[C@H](Nc2cc(-c3csc(NCC4(C#N)CCOCC4)n3)c(Cl)cn2)CC1` [crystal form 2]: the Content % in series [4] (0 day) amounted to 99.13%; in series [4] (7 days), 98.56%; in series [4] (14 days), 97.73%. The values for the Total impurity % in series [4] (0 day), in series [4] (7 days) and in series [4] (14 days) were 0.87%, 1.44% and 2.27%, respectively. In series [6] (after 14 days at high temperature (60° C.)), the “characteristic peaks of the XRPD pattern” value was “basically unchanged”.

On to `COC[C@@H](C)N[C@H]1CC[C@H](Nc2cc(-c3csc(NCC4(C#N)CCOCC4)n3)c(Cl)cn2)CC1` [free base of the compound of formula (I), 4-(((4-(5-chloro-2-(((1R,4r)-4-(((R)-1-methoxypropyl-2-yl)amino)cyclohexyl)amino)pyridin-4-yl)thiazol-2-yl)amino)methyl)tetrahydro-2H-pyran-4-carbonitrile], for which the Content % was 99.50% in series [4] (0 day), 98.42% in series [4] (7 days) and 97.44% in series [4] (14 days). Further, the results for the Total impurity % in series [4] (0 day), in series [4] (7 days) and in series [4] (14 days) were 0.50%, 1.58% and 2.56%, respectively. Besides, in series [4] (setting [7]), the “change in the character (appearance)” value is listed as “changes from a yellow solid to a hard gelatinous substance”. In addition, the solubility in series [1] (PBS buffer, pH 7.2, aqueous buffer, PBS pH 7.2, room temperature, read-out: Solubility (S, mg/mL)) is approximately 10.1 mg/mL. Further, the “Solubility (S, mg/mL)” value in series [1] (PBS pH 6.5, room temperature) is “about 15.10 mg/mL”; in series [1] (PBS pH 7.0, room temperature), “about 12.5 mg/mL”; in series [1] (PBS pH 7.5, room temperature), “about 0.44 mg/mL”; in series [1] (water, room temperature), “about 0.1 mg/mL”. Also, the “solubility compared with crystal form 1 of the maleate (in words)” value in series [1] (same experiment conditions, amorphous free base) is on record as “significant lower solubility”. Also, the “hygroscopicity (in words)” value in series [5] (environment humidity higher than 60%, amorphous form) was “quite strong hygroscopicity”. Moreover, the “weight increasement due” value in series [5] (relative humidity 95%) amounted to 9.5%. The “stability (in words)” value in series [6] (setting [7]) is “poor stability”.

As to `COC[C@@H](C)N[C@H]1CC[C@H](Nc2cc(-c3csc(NCC4(C#N)CCOCC4)n3)c(Cl)cn2)CC1` [crystal form 1 of the maleate of the compound of formula (I)], the Content % is 99.91% in series [4] (0 day), 99.88% in series [4] (7 days) and 99.86% in series [6]. In addition, the Total impurity % in series [4] (0 day) came to 0.09%; in series [4] (7 days) it was 0.12%; in series [6], 0.14%. Besides, the “Solubility (S, mg/mL)” value came out at 45 mg/mL in series [1] (PBS pH 6.5, room temperature); 57 mg/mL in series [1] (PBS pH 7.0, room temperature); 62 mg/mL in series [1] (PBS pH 7.5, room temperature); 31 mg/mL in series [1] (water, room temperature). Moreover, the “hygroscopicity (in words)” value in series [5] (environment humidity RH=60%) is “weak”. For the same molecule, in series [5] (environment humidity RH=60%), the “weight increasement due” value is given as “about 1%”. For the same molecule, the “effect on cell growth” value in series [2] (concentration range 0.0001 μM to 0.01 μM) is reported as “no significant changes in cell growth”; in series [2] (concentration range 0.03 μM to 10 μM) it was “significant inhibitory effect”. Moreover, the “change in content or in the characteristic peaks of the XRPD pattern” value in series [6] was “basically no change”.
